We go through one molecule from US20070114186A1 (priority 2003, published 2007).

For the assay, the system named is pseudomonas & other pathogens.

Consider `[Zn]` [zinc], for which the “kills pseudomonas & other pathogens” value is on record as “kills pseudomonas & other pathogens”.
